The values that follow come from patent publication US20230391779A1, “BICYCLIC COMPOUNDS, COMPOSITIONS AND USE THEREOF” (Betta Pharmaceuticals Co., Ltd., priority 2020, published 2023).

The subject of this test is TEAD-YAP/TAZ interaction. Nature of the test: CTGF ELISA assay. Particulars: CTGF in culture supernatant of NCI-H2052 cells, 24 hours with compound. Type of test: cell-based, human. As to the method: The detection of CTGF expression level can assessed the binding activity of TEAD-YAP/TAZ transcription factor, and the CTGF expression level was quantified by SimpleStep ELISA® kit (Abcam, ab261851).
NCI-H2052 cells (Purchased from ATCC) were cultured in RPMI 1640 medium, adding 10% FBS and 1% Penicillin-Streptomycin Solution and 1 mM Sodium pyruvate. The day before compounds treatment, the cultured cells were washed with PBS and digested with trypsin, then centrifuged and collected. Discarded the supernatant, the cells were resuspended in fresh complete medium. After cells counted, cells were seeded at 6500 cells/well in 96-well plates. And then cells were cultured overnight in incubator (37° C., 5% CO2).
After the cells were cultured overnight, discarded the culture supernatant, then washed with PBS solution, cells were incubated with 200 μl medium containing compounds in each well. The starting concentration was 10 μM and serial dilution in DMSO and medium were performed to achieve a final DMSO concentration of 0.5% (Final compounds concentration were 10000, 2500, 625, 156, 39.1, 9.77, 2.44, 0.61 nM, 0 nM (0.5% DMSO), The cells were then cultured in incubator (37° C., 5% CO2). Cultured for 24 hours, the cells were centrifuged at 1500 RPM at 4° C. for 5 minutes, and then 50 μl of culture supernatant were tested for CTGF ELISA assay.
The Human CTGF SimpleStep ELISA® Kit (Abcam, ab261851) employs an affinity tag labeled capture antibody and a reporter conjugated detector antibody which immunocapture the sample analyte in solution. This entire complex (capture antibody/analyte/detector antibody) is in turn immobilized via immunoaffinity of an anti-tag antibody coating the well. To perform the assay, samples or standards are added to the wells, followed by the antibody mix (capture antibody/detector antibody). After incubation, the wells are washed to remove unbound material. TMB Development Solution is added and during incubation is catalyzed by HRP, generating blue coloration. This reaction is then stopped by addition of Stop Solution completing any color change from blue to yellow. Signal is generated proportionally to the amount of bound analyte and the intensity is measured at 450 nm. Firstly, prepare all reagents, samples, and standards as instructed. Add 50 μl standard or sample to appropriate wells. Then add 50 μl of the Antibody Cocktail to each well. Seal the plate and incubate for 1 hour at room temperature on a plate shaker. Wash each well with Wash Buffer three times. Add 100 μl of TMB Development Solution to each well and incubate for 10 minutes in the dark on a plate shaker. Add 100 μl of Stop Solution to each well. Shake plate on a plate shaker for 1 minute to mix. Record the OD at 450 nm. Determine the concentration of the target protein in the sample by the standard curve.
EC50 value was determined by fitting the concentration response curves using GraphPad Prism software. The compounds of the present invention were tested for their capacity to inhibit TEAD-YAP/TAZ interaction according to the fitted curves of CTGF concentration response to compounds.
As to `C=CC(=O)N1CC(n2nc(-c3ccc(C4CC4)cc3)c3ncccc32)C1` [Compound 120, 1-(3-(3-(4-cyclopropylphenyl)-1H-pyrazolo[4,3-b]pyridin-1-yl)-azetidin-1-yl)prop-2-en-1-one], the EC50 amounted to 36 nM.
Take `C=CC(=O)N1CC(n2nc(-c3ccc(C(F)(F)F)cc3)c3ccc(N(C)C)nc32)C1` [Compound 121, 1-(3-(6-(dimethylamino)-3-(4-(trifluoromethyl)phenyl)-1H-pyrazolo[3,4-b]pyridin-1-yl)-azetidin-1-yl)prop-2-en-1-one]: the concentration for a half-maximal effect (EC50) came to 3 nM.
As for `C=C(F)C(=O)N1CC(n2nc(-c3ccc(C(F)(F)F)cc3)c3ccc(N(C)C)nc32)C1` [Compound 122, 1-(3-(6-(dimethylamino)-3-(4-(trifluoromethyl)phenyl)-1H-pyrazolo[3,4-b]pyridin-1-yl)-azetidin-1-yl)-2-fluoroprop-2-en-1-one], the figure is 24 nM; as for `C=CC(=O)N1CC(n2nc(-c3ccc(C(F)(F)F)nc3)c3cccnc32)C1` [Compound 123, 1-(3-(3-(6-(trifluoromethyl)pyr-idin-3-yl)-1H-pyrazolo[3,4-b]-pyridin-1-yl)azetidin-1-yl)prop-2-en-1-one], 7 nM.
As for `C=CC(=O)N1CCC2(CCC(n3nc(-c4ccc(C(F)(F)F)cc4)c4ncccc43)C2)C1` (centres unmarked) [Compound 125, 1-(7-(3-(4-(trifluoromethyl)phen-yl)-1H-pyrazolo[4,3-b]pyridin-1-yl)-2-azaspiro[4.4]nonan-2-yl)-prop-2-en-1-one], the figure is 75 nM; as for `C=CC(=O)N1CC(n2nc(-c3ccc(C(F)(F)F)cc3F)c3cccnc32)C1` [Compound 127, 1-(3-(3-(2-fluoro-4-(trifluoro-methyl)phenyl)-1H-pyrazolo[3,4-b]pyridin-1-yl)azetidin-1-yl)prop-2-en-1-one], 8 nM; as for `C=CC(=O)N1CC(n2nc(-c3ccc(C(F)(F)F)cc3F)c3ncccc32)C1` [Compound 129, 1-(3-(3-(2-fluoro-4-(trifluoro-methyl)phenyl)-1H-pyrazolo[4,3-b]pyridin-1-yl)azetidin-1-yl)prop-2-en-1-one], 8 nM.
`C=CC(=O)N1CC(n2nc(-c3ccc(C(F)(F)F)nc3)c3ncccc32)C1` [Compound 131, 1-(3-(3-(6-(trifluoromethyl)pyr-idin-3-yl)-1H-pyrazolo[4,3-b]-pyridin-1-yl)azetidin-1-yl)prop-2-en-1-one]: the EC50 worked out at 18 nM.
Next, `C=C(F)C(=O)N1CC(n2nc(-c3ccc(C(F)(F)F)cc3)c3nccnc32)C1` [Compound 160, 2-fluoro-1-(3-(3-(4-(trifluoro-methyl)phenyl)-1H-pyrazolo[3,4-b]pyrazin-1-yl)azetidin-1-yl)prop-2-en-1-one]: 9 nM.
As for `C=CC(=O)N1CC(n2nc(-c3ccc(C(F)(F)F)cc3)c3nccnc32)C1` [Compound 161, 1-(3-(3-(4-(trifluoromethyl)phen-yl)-1H-pyrazolo[3,4-b]pyrazin-1-yl)azetidin-1-yl)prop-2-en-1-one], the figure is 3 nM; as for `C=C(F)C(=O)N1CC(n2nc(-c3ccc(C(F)(F)F)cc3)c3ccc[n+]([O-])c32)C1` [Compound 165, 1-(1-(2-fluoroacryloyl)azetidin-3-yl)-3-(4-(trifluoromethyl)phenyl)-1H-pyrazolo[3,4-b]pyridine 7-oxide], 40 nM.
For the compound `C=C(F)C(=O)N1CC(n2nc(-c3ccc(C(C)C)cc3)c3cccnc32)C1` [Compound 171, 2-fluoro-1-(3-(3-(4-isopropyl-phenyl)-1H-pyrazolo[3,4-b]-pyridin-1-yl)azetidin-1-yl)prop-2-en-1-one], the EC50 is 148 nM.
As for `C=C(F)C(=O)N1CC(n2nc(-c3ccc(C#N)c(C(F)(F)F)c3)c3cccnc32)C1` [Compound 178, 4-(1-(1-(2-fluoroacryloyl)azetidin-3-yl)-1H-pyrazolo[3,4-b]pyridin-3-yl)-2-(trifluoromethyl)benzo-nitrile], the figure is 34 nM; as for `C=C(F)C(=O)N1CC(n2nc(-c3cnc(C(F)(F)F)c(F)c3)c3cccnc32)C1` [Compound 184, 2-fluoro-1-(3-(3-(5-fluoro-6-(trifluoromethyl)pyridin-3-yl)-1H-pyrazolo[3,4-b]pyridin-1-yl)-azetidin-1-yl)prop-2-en-1-one], 7.69 nM.
Consider `C=C(F)C(=O)N1CC(n2nc(-c3ccc(C(F)(F)F)cc3)c3ccc(C)nc32)C1` [Compound 186, 2-fluoro-1-(3-(6-methyl-3-(4-(trifluoromethyl)phenyl)-1H-pyrazolo[3,4-b]pyridin-1-yl)-azetidin-1-yl)prop-2-en-1-one], for which the EC50 is 2 nM.
As for `C=C(F)C(=O)N1CC(n2nc(-c3ccc(C(F)(F)F)cc3)c3ccc(Cl)nc32)C1` [Compound 187, 1-(3-(6-chloro-3-(4-(trifluoro-methyl)phenyl)-1H-pyrazolo[3,4-b]pyridin-1-yl)azetidin-1-yl)-2-fluoroprop-2-en-1-one], the figure is 2 nM; as for `C=C(F)C(=O)Nc1cc(-n2nc(-c3ccc(C(F)(F)F)cc3)c3cccnc32)ccc1OC` [Compound 188, 2-fluoro-N-(2-methoxy-5-(3-(4-(trifluoromethyl)phenyl)-1H-pyrazolo[3,4-b]pyridin-1-yl)-phenyl)acrylamide], 0.06 nM.
As for `C=CC(=O)Nc1cc(-n2nc(-c3ccc(C(F)(F)F)cc3)c3cccnc32)ccc1Cl` [Compound 189, N-(2-chloro-5-(3-(4-(trifluoro-methyl)phenyl)-1H-pyrazolo[3,4-b]pyridin-1-yl)phenyl)acrylamide], the figure is 24 nM.
Next, `C=C(F)C(=O)N1CC(n2nc(-c3ccc(C(F)(F)F)cc3)c3ccccc32)C1` [Compound 196, 2-fluoro-1-(3-(3-(4-(trifluoro-methyl)phenyl)-1H-indazol-1-yl)azetidin-1-yl)prop-2-en-1-one]: 9 nM; `C=C(F)C(=O)N1CC(n2nc(-c3ccc(C(F)(F)F)nc3)c3ccccc32)C1` [Compound 197, 2-fluoro-1-(3-(3-(6-(trifluoro-methyl)pyridin-3-yl)-1H-indazol-1-yl)azetidin-1-yl)prop-2-en-1-one]: 12.6 nM.
Consider `C=C(F)C(=O)N1CC(n2nc(-c3ccc(C(F)(F)F)nc3)c3nccnc32)C1` [Compound 198, 2-fluoro-1-(3-(3-(6-(trifluoro-methyl)pyridin-3-yl)-1H-pyrazolo[3,4-b]pyrazin-1-yl)-azetidin-1-yl)prop-2-en-1-one], for which the EC50 came to 0.9 nM.
As for `C=C(F)C(=O)N1CC(n2nc(-c3ccc(C(F)(F)F)nc3)c3ccc(C)nc32)C1` [Compound 199, 2-fluoro-1-(3-(6-methyl-3-(6-(trifluoromethyl)pyridin-3-yl)-1H-pyrazolo[3,4-b]pyridin-1-yl)-azetidin-1-yl)prop-2-en-1-one], the figure is 20 nM; as for `C=C(F)C(=O)N1CC(n2nc(-c3ccc(C(F)(F)F)cc3)c3cc(F)cnc32)C1` [Compound 202, 2-fluoro-1-(3-(5-fluoro-3-(4-(trifluoromethyl)phenyl)-1H-pyrazolo[3,4-b]pyridin-1-yl)-azetidin-1-yl)prop-2-en-1-one], 8.1 nM; as for `C=C(F)C(=O)N1CC(n2nc(-c3ccc(C(F)(F)F)cc3)c3c2CCOC3)C1` [Compound 208, 2-fluoro-1-(3-(3-(4-(trifluoro-methyl)phenyl)-6,7-dihydro-pyrano-[4,3-c]pyrazol-1(4H)-yl)-azetidin-1-yl)prop-2-en-1-one], 4.1 nM.
With `C=C(F)C(=O)N1CC(n2nc3c(c2-c2ccc(C(F)(F)F)cc2)COCC3)C1` [Compound 209, 2-fluoro-1-(3-(3-(4-(trifluoro-methyl)phenyl)-6,7-dihydro-pyrano[4,3-c]pyrazol-2(4H)-yl)azetidin-1-yl)prop-2-en-1-one], the concentration giving a half-maximal response (EC50) turned out to be 25 nM.
As for `C=C(F)C(=O)N1CC(n2nc(-c3ccc(C(F)(F)F)cc3)c3c2CCCC3)C1` [Compound 217, 2-fluoro-1-(3-(3-(4-(trifluoro-methyl)phenyl)-4,5,6,7-tetra-hydro-1H-indazol-1-yl)azetidin-1-yl)prop-2-en-1-one], the figure is 5.7 nM.
